Converted amounts (≈) assume the structure as drawn.
Legend:
[1] = Solubility of ursodeoxycholic acid in water; format: physicochemical; conditions: pH 1 to 8
[2] = protonated form (pH 1 to 8); cited from earlier work
[3] = oral administration, crystalline form of UDCA; cited from earlier work
[4] = crystalline type of ursodeoxycholic acid; cited from earlier work

Compound	solubility relative to the commercialized UDCA [1]	solubility [2]	fraction absorbed at the ileum of the colon by the active transport mechanism [3]	acid dissociation constant, pKa [4]
C[C@H](CCC(=O)NCCS(=O)(=O)O)[C@H]1CC[C@H]2[C@@H]3[C@@H](O)C[C@@H]4C[C@H](O)CC[C@]4(C)[C@H]3CC[C@]12C [TUDCA, tauroursodeoxycholic acid]	about 10 times	450 µM (≈ 225 µg/mL)		
C[C@H](CCC(=O)O)[C@H]1CC[C@H]2[C@@H]3[C@@H](O)C[C@@H]4C[C@H](O)CC[C@]4(C)[C@H]3CC[C@]12C [UDCA, ursodeoxycholic acid]		about 0.05 mM	up to 20 % of intakes	about 5.0
